Data from PubChem BioAssay AID248 (DTP/NCI, 2004).
Several values for one entry are separate records, joined by “and”; a condition that tells them apart may be missing. Equal entries are not always repeated. Toxic doses and inconclusive results are not listed. No stated cut-off is given here; in the data, active means T/C of 150% or more; inactive means T/C below 125%.

Tested on: L1210 leukemia ip in BDF1 mice, survival T/C
Test: NCI In Vivo Anticancer Drug Screen. Data for tumor model L1210 Leukemia (intraperitoneal) in B6D2F1 (BDF1) mice
Conditions: endpoint: mean survival time, higher = longer survival
Procedure, shortened: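 Ratio derived from survival: compound-dosed mice over vehicle-dosed mice, all bearing a transplantable tumor.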

[1] = dose: 100.0 mg/kg/injection, schedule: Q04DX003 (ip), vehicle: saline with Tween-80
[2] = dose: 200.0 mg/kg/injection, schedule: Q04DX002 (ip), vehicle: Klucel (hydroxypropylcellulose) (HPC)
[3] = dose: 400.0 mg/kg/injection, schedule: Q04DX002 (ip), vehicle: Klucel (hydroxypropylcellulose) (HPC)
[4] = dose: 100.0 mg/kg/injection, schedule: Q01DX009 (ip), vehicle: saline with Tween-80
[5] = dose: 200.0 mg/kg/injection, schedule: Q01DX009 (ip), vehicle: saline with Tween-80
[6] = dose: 100.0 mg/kg/injection, schedule: Q01DX009 (ip), vehicle: Klucel (hydroxypropylcellulose) (HPC)
[7] = dose: 100.0 mg/kg/injection, schedule: Q04DX003 (ip), vehicle: Klucel (hydroxypropylcellulose) (HPC)
[8] = dose: 200.0 mg/kg/injection, schedule: Q01DX009 (ip), vehicle: Klucel (hydroxypropylcellulose) (HPC)
[9] = dose: 200.0 mg/kg/injection, schedule: Q04DX003 (ip), vehicle: Klucel (hydroxypropylcellulose) (HPC)
[10] = dose: 400.0 mg/kg/injection, schedule: Q04DX003 (ip), vehicle: Klucel (hydroxypropylcellulose) (HPC)
[11] = dose: 100.0 mg/kg/injection, schedule: Q01DX001 (ip), vehicle: saline
[12] = dose: 200.0 mg/kg/injection, schedule: Q04DX003 (ip), vehicle: saline with Tween-80
[13] = dose: 50.0 mg/kg/injection, schedule: Q01DX009 (ip), vehicle: Klucel (hydroxypropylcellulose) (HPC)

Measured: T/C

CCCCCC(O)C1C(=O)OC(C)C(O)/C=C/C=C/C=C/C=C/C=C(\C)C(O)C(O)C(O)CC(O)CC(O)CC(O)CC(O)CC1O (stereo not given)
inactive: dose: 0.5 mg/kg/injection, schedule: Q01DX001 (ip), vehicle: saline 97 % of control | dose: 1.0 mg/kg/injection, schedule: Q01DX001 (ip), vehicle: saline 97 % of control | dose: 2.0 mg/kg/injection, schedule: Q01DX001 (ip), vehicle: saline 95 % of control | dose: 4.0 mg/kg/injection, schedule: Q01DX001 (ip), vehicle: saline 92 % of control | dose: 8.0 mg/kg/injection, schedule: Q01DX001 (ip), vehicle: saline 97 % of control

CC(=O)/C(C1=NCCC1)=C(/C)O
inactive: dose: 100.0 mg/kg/injection, schedule: Q04DX003 (ip), vehicle: saline 92 % of control | dose: 200.0 mg/kg/injection, schedule: Q04DX003 (ip), vehicle: saline 98 % of control | dose: 400.0 mg/kg/injection, schedule: Q04DX003 (ip), vehicle: saline 98 % of control

CSc1nc(N)cc(Nc2ccc(Cl)[nH]c2=S)n1
inactive: dose: 75.0 mg/kg/injection, schedule: Q01DX001 (ip), vehicle: Klucel (hydroxypropylcellulose) (HPC) 92 % of control | dose: 150.0 mg/kg/injection, schedule: Q01DX001 (ip), vehicle: Klucel (hydroxypropylcellulose) (HPC) 95 % of control | dose: 300.0 mg/kg/injection, schedule: Q01DX001 (ip), vehicle: Klucel (hydroxypropylcellulose) (HPC) 93 % of control

C[Si](C)(C)C1C2c3ccccc3C1C1(C#N)C(=O)C(Cl)=C(Cl)C(=O)C21C#N (stereo not given)
inactive: [1] 93 % of control

Cc1c2ccccc2c(C)c2c1cc(C(=O)O)c1ccccc12
inactive: [2] 115 % of control | [3] 101 % of control

CCCCNC(c1ccccc1)=[N+]1C(C)CCCC1C (stereo not given)
inactive: dose: 3.0 mg/kg/injection, schedule: Q04DX002 (ip), vehicle: saline 108 % of control | dose: 6.0 mg/kg/injection, schedule: Q04DX002 (ip), vehicle: saline 94 % of control | dose: 12.0 mg/kg/injection, schedule: Q04DX002 (ip), vehicle: saline 87 % of control | dose: 12.5 mg/kg/injection, schedule: Q04DX002 (ip), vehicle: saline 107 % of control

O=c1[nH]c2cnccc2c(=O)n1O
inactive: [4] 102 % of control | [5] 93 % of control | dose: 400.0 mg/kg/injection, schedule: Q01DX009 (ip), vehicle: saline with Tween-80 104 % of control

O=C1C=C(N2CC2)C(=O)C=C1N1CC1
inactive: dose: 0.62 mg/kg/injection, schedule: Q01DX001 (ip), vehicle: other 105 % of control | dose: 1.25 mg/kg/injection, schedule: Q01DX001 (ip), vehicle: other 117 % of control | dose: 2.5 mg/kg/injection, schedule: Q01DX001 (ip), vehicle: other 107 % of control

O=C(NCCCl)Oc1cccc2c1CCCC2
inactive: [6] 87 % of control | [7] 103 % of control | [8] 97 % of control | [9] 100 % of control | dose: 400.0 mg/kg/injection, schedule: Q01DX009 (ip), vehicle: Klucel (hydroxypropylcellulose) (HPC) 100 % of control | [10] 100 % of control

CC1(C)c2ccccc2N(CCCN)c2ccccc21
inactive: dose: 3.25 mg/kg/injection, schedule: Q01DX001 (ip), vehicle: saline 93 % of control | dose: 6.5 mg/kg/injection, schedule: Q01DX001 (ip), vehicle: saline 93 % of control | dose: 13.0 mg/kg/injection, schedule: Q01DX001 (ip), vehicle: saline 96 % of control | dose: 50.0 mg/kg/injection, schedule: Q01DX001 (ip), vehicle: saline 95 % of control | [11] 106 % of control

Cn1c(=N)sc2ccc3ccccc3c21
inactive: dose: 12.5 mg/kg/injection, schedule: Q04DX003 (ip), vehicle: Klucel (hydroxypropylcellulose) (HPC) 90 % of control | dose: 25.0 mg/kg/injection, schedule: Q04DX003 (ip), vehicle: Klucel (hydroxypropylcellulose) (HPC) 91 % of control | dose: 50.0 mg/kg/injection, schedule: Q04DX003 (ip), vehicle: Klucel (hydroxypropylcellulose) (HPC) 98 % of control | [7] 86 % of control

CCOC1OC(C2COC(=O)O2)C(O)C1O (stereo not given)
inactive: dose: 100.0 mg/kg/injection, schedule: Q04DX002 (ip), vehicle: saline 100 % of control | dose: 200.0 mg/kg/injection, schedule: Q04DX002 (ip), vehicle: saline 100 % of control and 104 % of control | dose: 400.0 mg/kg/injection, schedule: Q04DX002 (ip), vehicle: saline 100 % of control | dose: 800.0 mg/kg/injection, schedule: Q04DX002 (ip), vehicle: saline 100 % of control

Nc1ccc2c(c1)Cc1ccccc1-2
inactive: [1] 101 % of control | [12] 101 % of control

COC(=O)CSc1nc2ccccc2[nH]1
inactive: dose: 100.0 mg/kg/injection, schedule: Q04DX002 (ip), vehicle: Klucel (hydroxypropylcellulose) (HPC) 104 % of control | [2] 100 % of control | [3] 100 % of control

O=C(O)c1ccc(OCCCOc2ccccc2)c(Cl)c1
inactive: [1] 96 % of control | [12] 93 % of control

CCCCCCCCN1CCC(c2cccc(O)c2)C(C(=O)CC)C1 (stereo not given)
inactive: dose: 6.0 mg/kg/injection, schedule: Q01DX009 (ip), vehicle: Klucel (hydroxypropylcellulose) (HPC) 94 % of control and 102 % of control | dose: 12.0 mg/kg/injection, schedule: Q01DX009 (ip), vehicle: Klucel (hydroxypropylcellulose) (HPC) 94 % of control | [13] 87 % of control

CC1(C)C[N+](Cc2ccccc2)(Cc2ccccc2)C1
inactive: dose: 0.78 mg/kg/injection, schedule: Q01DX009 (ip), vehicle: saline 100 % of control | dose: 1.56 mg/kg/injection, schedule: Q01DX009 (ip), vehicle: saline 102 % of control | dose: 3.12 mg/kg/injection, schedule: Q01DX009 (ip), vehicle: saline 100 % of control | dose: 6.25 mg/kg/injection, schedule: Q01DX009 (ip), vehicle: saline 103 % of control | dose: 12.5 mg/kg/injection, schedule: Q04DX003 (ip), vehicle: saline 112 % of control | dose: 25.0 mg/kg/injection, schedule: Q04DX003 (ip), vehicle: saline 98 % of control | dose: 50.0 mg/kg/injection, schedule: Q04DX003 (ip), vehicle: saline 97 % of control

OC(C(c1ccccc1)N1CCOCC1)C(O)(c1ccccc1)c1ccccc1 (stereo not given)
inactive: [11] 106 % of control | dose: 200.0 mg/kg/injection, schedule: Q01DX001 (ip), vehicle: saline 94 % of control | dose: 400.0 mg/kg/injection, schedule: Q01DX001 (ip), vehicle: saline 97 % of control

OC1C2CC3C1C3C2c1ccccc1 (stereo not given)
inactive: [6] 102 % of control | [8] 91 % of control

c1ccc(N2CCN(c3ccccn3)CC2)nc1
inactive: dose: 50.0 mg/kg/injection, schedule: Q01DX009 (ip), vehicle: saline with Tween-80 92 % of control | [4] 99 % of control | [5] 89 % of control

C=CCCCCCCCC/C=C1\CCOC1=O
inactive: dose: 75.0 mg/kg/injection, schedule: Q01DX009 (ip), vehicle: saline with Tween-80 105 % of control | [1] 104 % of control | dose: 150.0 mg/kg/injection, schedule: Q01DX009 (ip), vehicle: saline with Tween-80 93 % of control | [12] 89 % of control | dose: 300.0 mg/kg/injection, schedule: Q01DX009 (ip), vehicle: saline with Tween-80 99 % of control | dose: 400.0 mg/kg/injection, schedule: Q04DX003 (ip), vehicle: saline with Tween-80 102 % of control

Cc1ccc(C(=O)O)cc1-n1c(-c2ccc(Cl)cc2)nnc1-c1ccc(Br)cc1
inactive: [13] 92 % of control | dose: 100.0 mg/kg/injection, schedule: Q01DX001 (ip), vehicle: Klucel (hydroxypropylcellulose) (HPC) 97 % of control | [6] 93 % of control | dose: 200.0 mg/kg/injection, schedule: Q01DX001 (ip), vehicle: Klucel (hydroxypropylcellulose) (HPC) 96 % of control | [8] 93 % of control

COc1ccc2c(c1)CCC1C2CCC2(C)C1CCC21CCNP(=O)(N(CCCl)CCCl)O1 (stereo not given)
inactive: [7] 101 % of control | [9] 103 % of control | [10] 92 % of control

Fc1ccc(CC(F)(F)F)cc1
inactive: dose: 100.0 mg/kg/injection, schedule: Q01DX001 (ip), vehicle: saline with Tween-80 97 % of control | dose: 200.0 mg/kg/injection, schedule: Q01DX001 (ip), vehicle: saline with Tween-80 105 % of control | dose: 400.0 mg/kg/injection, schedule: Q01DX001 (ip), vehicle: saline with Tween-80 98 % of control
